# How the values were obtained:
# Type in all cases: physicochemical
# [1] = Photopolymerization efficiency, gravimetric determination of the cured polymer mass; settings: photopolymerization efficiency test per application example 5 with antioxidant
# Protocol: The photopolymerization efficiency was examined by gravimetric determination of the cured polymer mass: Solutions containing prepolymer prepared according to examples 5-7, 10 or 11 (15% w/w) and photoinitiator (0.1% w/w) were prepared in deionized water. 500 mg of the premixed solutions were loaded into a 2 mL polystyrene cuvette and irradiated for 60 s with a laser (X=405 nm, p=10 mW) from the side. The solid hydrogels were removed, wiped to remove residual liquid, and weighed. The ratio of solid, cure material to liquid, uncured material was calculated and used as a measure for the photopolymerization efficiency. The setup used is depicted in FIG. 2: 301 represents the polystyrene cuvette, 302 the liquid prepolymer composition, 303 the solidified hydrogel and 304 the laser beam.
# The photopolymerization efficiency of the prepolymers PEG-DMA (prepared according to example 7), linker-containing PEG-dimethacrylates (example 5-7), PEG-DAAm (example 10), linker-containing PEG-diacrylamides (example 11) and 1OR5-Dimethacrylate (example 12) was compared according to application example 5: […]
# [2] = Antioxidant testing: accelerated aging of antioxidant-doped hydrogels in D2O, decomposition markers by NMR; settings: antioxidant added to prepolymer formulation (BHT with 1% DMSO)
# From the text: The influence of different antioxidants on hydrogel stability was studied by doping prepolymer formulations with specified antioxidants prior to photopolymerization as described in application example 1, followed by accelerated aging experiments in heavy water (D20).
# Detection of decomposition was observed by NMR spectroscopy with the formation of decomposition markers, such as formic acid, in the liquid. This was quantified with the addition of an internal standard.
# [3] = Retainment of antioxidants in hydrogel samples, leaching with weekly exchange of heavy water
# Protocol: The retainment properties of antioxidants were tested by preparing and aging antioxidant-doped samples according to application example 3. The heavy water the hydrogels samples were aged in was exchanged weekly, followed by testing of the heavy water. Detection of decomposition was observed by NMR spectroscopy with the formation of decomposition markers, such as formic acid, in the liquid. This was quantified with the addition of an internal standard.
# Retainment of BHT and sodium fenozan was studied according to […].
Decomposition (decomposition marker such as formic acid) of hydrogel with antioxidant [2],Decomposition markers in leached solvent ([3]; after 3 weeks of leaching) [mM],Structure (SMILES),Reduction of polymerized mass in presence of antioxidant [1],Retainment of antioxidant in hydrogel (decomposition markers and antioxidant in leached solvent) ([3]; leaching experiments over three weeks)
no decomposition was observed,–,Cc1cc(C(C)(C)C)c(O)c(C(C)(C)C)c1 [BHT],no reduction of polymerized masses was observed,lack of decomposition markers and antioxidant in the leached solvent
no decomposition was observed,1.4,CC(C)(C)c1cc(CCC(=O)[O-])cc(C(C)(C)C)c1O.[Na+] [sodium fenozan],no reduction of polymerized masses was observed,–
